± gives the standard deviation of the averaged measurements.
Tests used:
[1] = compound: T1, COc1cccc2c1C(=O)c1c(O)c3c(c(O)c1C2=O)C[C@@](O)(C(=O)CO)C[C@@H]3O[C@H]1C[C@H](N)[C@H](O)[C@H](C)O1 [DOXORUBICIN]; test: surviving fraction relative to DMSO-only wells; higher = less growth inhibition; conditions: exposure time: 5 days
Summary of the method: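 After seeding at 250–500 cells per well in 384-well plates and a 24-hour wait, log-phase tumour cell lines were exposed without interruption for five days to inhibitors at 0.5, 1, 5, 10, 50, 100, 500 and 1000 nM. CellTiter-Glo luminescence was recorded after 10 minutes at room temperature. Viability is reported as surviving fraction, the luminescence normalised to the median of DMSO-only wells.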

[2] = compound: CCN(CC)CCCCNc1ncc2cc(-c3cc(OC)cc(OC)c3)c(NC(=O)NC(C)(C)C)nc2n1; test: area under dose-response curve of surviving fraction (unscaled, Aref=0) (surviving fraction x log10(nM)); higher = more resistant; conditions: exposure time: 5 days; dose range 0.5-1000 nM
Summary of the method: (§1)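 Three screens per tumour cell line were run in 384-well plates at eight inhibitor concentrations from 0.5 to 1000 nM over five days. Surviving fractions, from CellTiter-Glo luminescence normalised to DMSO-only wells, were fitted with 3-parameter logistic curves in the drc R package. The reported area under the curve is the unscaled activity area. It spans log10 dose, and Aref is 0.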

[3] = compound: C=CCNC1=C2C[C@@H](C)C[C@H](OC)[C@H](O)[C@@H](C)/C=C(\C)[C@H](OC(N)=O)[C@@H](OC)/C=C\C=C(/C)C(=O)NC(=CC1=O)C2=O [17-AAG]; test: as above; conditions: exposure time: 5 days; dose range 0.5-1000 nM
Summary of the method: as §1

[4] = compound: T1, DOXORUBICIN; test: as above; conditions: exposure time: 5 days; dose range 0.5-1000 nM
Summary of the method: as §1

[5] = compound: CC[C@@H](C(=O)[C@@H](C)[C@@H](O)[C@H](C)[C@@H]1O[C@@H]([C@@H](CC)C(=O)O)CC[C@@H]1C)[C@H]1O[C@]2(C=C[C@@H](O)[C@]3(CC[C@@](C)([C@H]4CC[C@](O)(CC)[C@H](C)O4)O3)O2)[C@H](C)C[C@@H]1C [SALINOMYCIN]; test: as above; conditions: exposure time: 5 days; dose range 0.5-1000 nM
Summary of the method: as §1

[6] = compound: CS(=O)(=O)c1ccc(C(=O)Nc2ccc(Cl)c(-c3ccccn3)c2)c(Cl)c1 [VISMODEGIB]; test: as above; conditions: exposure time: 5 days; dose range 0.5-1000 nM
Summary of the method: as §1

[7] = compound: CS(=O)(=O)CCNCc1ccc(-c2ccc3ncnc(Nc4ccc(OCc5cccc(F)c5)c(Cl)c4)c3c2)o1 [LAPATINIB]; test: as above; conditions: exposure time: 5 days; dose range 0.5-1000 nM
Summary of the method: as §1

[8] = compound: Oc1ccc(/C=C/c2cc(O)cc(O)c2)cc1 [RESVERATROL]; test: as above; conditions: exposure time: 5 days; dose range 0.5-1000 nM
Summary of the method: as §1

[9] = compound: COc1cc2c(cc1O)CC[C@@H]1[C@@H]2CC[C@]2(C)[C@@H](O)CC[C@@H]12 [2-METHOXYESTRADIOL]; test: as above; conditions: exposure time: 5 days; dose range 0.5-1000 nM
Summary of the method: as §1

[10] = compound: CN1CC[C@H](c2c(O)cc(O)c3c(=O)cc(-c4ccccc4Cl)oc23)[C@H](O)C1 [FLAVOPIRIDOL]; test: as above; conditions: exposure time: 5 days; dose range 0.5-1000 nM
Summary of the method: as §1

[11] = compound: O=c1[nH]cc(F)c(=O)[nH]1 [FLUOROURACIL]; test: as above; conditions: exposure time: 5 days; dose range 0.5-1000 nM
Summary of the method: as §1

[12] = compound: Nc1ncn([C@H]2C[C@H](O)[C@@H](CO)O2)c(=O)n1 [DECITABINE]; test: as above; conditions: exposure time: 5 days; dose range 0.5-1000 nM
Summary of the method: as §1

[13] = compound: CN(C)CC[C@H](CSc1ccccc1)Nc1ccc(S(=O)(=O)NC(=O)c2ccc(N3CCN(Cc4ccccc4-c4ccc(Cl)cc4)CC3)cc2)cc1[N+](=O)[O-] [ABT-737]; test: as above; conditions: exposure time: 5 days; dose range 0.5-1000 nM
Summary of the method: as §1

## HCC202 BREAST
[1]; 0.5 nM
  surviving fraction: 1.2 ± 0.18
[1]; 1 nM
  surviving fraction: 1.26 ± 0.26
[1]; 5 nM
  surviving fraction: 0.896 ± 0.058
[1]; 10 nM
  surviving fraction: 1.04 ± 0.49
[1]; 50 nM
  surviving fraction: 0.697 ± 0.069
[1]; 100 nM
  surviving fraction: 0.457 ± 0.065
[1]; 500 nM
  surviving fraction: 0.0987 ± 0.019
[1]; 1000 nM
  surviving fraction: 0.0423 ± 0.0078
[2]
  area under dose-response curve: 4.1
[3]
  area under dose-response curve: 1.59
[4]
  area under dose-response curve: 2.27
[5]
  area under dose-response curve: 2.48
[6]
  area under dose-response curve: 3.06

## HUO3N1 BONE
[1]; 0.5 nM
  surviving fraction: 0.977 ± 0.053
[1]; 1 nM
  surviving fraction: 1.02 ± 0.021
[1]; 5 nM
  surviving fraction: 0.953 ± 0.052
[1]; 10 nM
  surviving fraction: 0.857 ± 0.049
[1]; 50 nM
  surviving fraction: 0.47 ± 0.016
[1]; 100 nM
  surviving fraction: 0.311 ± 0.025
[1]; 500 nM
  surviving fraction: 0.08133 ± 0.00058
[1]; 1000 nM
  surviving fraction: 0.0547 ± 0.00058
[2]
  area under dose-response curve: 3.05
[7]
  area under dose-response curve: 3.26
[8]
  area under dose-response curve: 3.49
[3]
  area under dose-response curve: 2.3
[9]
  area under dose-response curve: 3.2
[10]
  area under dose-response curve: 2.49
[4]
  area under dose-response curve: 2
[5]
  area under dose-response curve: 2.41
[11]
  area under dose-response curve: 3.28

## JURKAT HAEMATOPOIETIC AND LYMPHOID TISSUE
[1]; 0.5 nM
  surviving fraction: 1.05 ± 0.023
[1]; 1 nM
  surviving fraction: 1.049 ± 0.0078
[1]; 5 nM
  surviving fraction: 0.61 ± 0.035
[1]; 10 nM
  surviving fraction: 0.129 ± 0.004
[1]; 50 nM
  surviving fraction: 0.0323 ± 0.00058
[1]; 100 nM
  surviving fraction: 0.0293 ± 0.00058
[1]; 500 nM
  surviving fraction: 0.027
[1]; 1000 nM
  surviving fraction: 0.0297 ± 0.00058
[2]
  area under dose-response curve: 3.44
[7]
  area under dose-response curve: 3.21
[12]
  area under dose-response curve: 1.56
[8]
  area under dose-response curve: 3.34
[3]
  area under dose-response curve: 2.65
[9]
  area under dose-response curve: 2.65
[10]
  area under dose-response curve: 2.12
[4]
  area under dose-response curve: 1.12
[5]
  area under dose-response curve: 2.52
[13]
  area under dose-response curve: 3.08

## LNCAP PROSTATE
[1]; 0.5 nM
  surviving fraction: 0.973 ± 0.018
[1]; 1 nM
  surviving fraction: 0.863 ± 0.076
[1]; 5 nM
  surviving fraction: 0.483 ± 0.075
[1]; 10 nM
  surviving fraction: 0.33 ± 0.029
[1]; 50 nM
  surviving fraction: 0.124 ± 0.013
[1]; 100 nM
  surviving fraction: 0.0727 ± 0.01
[1]; 500 nM
  surviving fraction: 0.024 ± 0.0017
[1]; 1000 nM
  surviving fraction: 0.0247 ± 0.0011
[2]
  area under dose-response curve: 2.96
[7]
  area under dose-response curve: 3.12
[12]
  area under dose-response curve: 2.75
[8]
  area under dose-response curve: 3.05
[3]
  area under dose-response curve: 1.33
[9]
  area under dose-response curve: 2.89
[10]
  area under dose-response curve: 1.78
[4]
  area under dose-response curve: 1.09
[5]
  area under dose-response curve: 1.9
[13]
  area under dose-response curve: 3.07

## MDAMB157 BREAST
[1]; 0.5 nM
  surviving fraction: 0.918 ± 0.025
[1]; 1 nM
  surviving fraction: 0.869 ± 0.053
[1]; 5 nM
  surviving fraction: 0.498 ± 0.058
[1]; 10 nM
  surviving fraction: 0.213 ± 0.02
[1]; 50 nM
  surviving fraction: 0.375 ± 0.042
[1]; 100 nM
  surviving fraction: 0.214 ± 0.014
[1]; 500 nM
  surviving fraction: 0.053 ± 0.0027
[1]; 1000 nM
  surviving fraction: 0.0307 ± 0.0046
[2]
  area under dose-response curve: 2.73
[7]
  area under dose-response curve: 3.27
[12]
  area under dose-response curve: 2.4
[8]
  area under dose-response curve: 3.39
[3]
  area under dose-response curve: 1.61
[9]
  area under dose-response curve: 3.1
[10]
  area under dose-response curve: 2.21
[4]
  area under dose-response curve: 1.21
[5]
  area under dose-response curve: 2.66
[6]
  area under dose-response curve: 3.26
[13]
  area under dose-response curve: 3.26

## NCIH441 LUNG
[1]; 0.5 nM
  surviving fraction: 1.04 ± 0.054
[1]; 1 nM
  surviving fraction: 1.06 ± 0.051
[1]; 5 nM
  surviving fraction: 0.937 ± 0.032
[1]; 10 nM
  surviving fraction: 0.799 ± 0.029
[1]; 50 nM
  surviving fraction: 0.558 ± 0.013
[1]; 100 nM
  surviving fraction: 0.461 ± 0.024
[1]; 500 nM
  surviving fraction: 0.246 ± 0.019
[1]; 1000 nM
  surviving fraction: 0.096 ± 0.0069
[2]
  area under dose-response curve: 3.37
[7]
  area under dose-response curve: 3.58
[12]
  area under dose-response curve: 2.57
[8]
  area under dose-response curve: 3.72
[3]
  area under dose-response curve: 2.37
[9]
  area under dose-response curve: 3.22
[10]
  area under dose-response curve: 2.48
[4]
  area under dose-response curve: 2.15
[5]
  area under dose-response curve: 3.12
[6]
  area under dose-response curve: 3.27

## NOS1 BONE
[1]; 0.5 nM
  surviving fraction: 1.16 ± 0.077
[1]; 1 nM
  surviving fraction: 0.972 ± 0.051
[1]; 5 nM
  surviving fraction: 0.982 ± 0.1
[1]; 10 nM
  surviving fraction: 0.643 ± 0.074
[1]; 50 nM
  surviving fraction: 0.752 ± 0.11
[1]; 100 nM
  surviving fraction: 0.455 ± 0.036
[1]; 500 nM
  surviving fraction: 0.106 ± 0.013
[1]; 1000 nM
  surviving fraction: 0.0487 ± 0.0068
[2]
  area under dose-response curve: 3.02
[7]
  area under dose-response curve: 3.54
[12]
  area under dose-response curve: 3.34
[8]
  area under dose-response curve: 3.77
[3]
  area under dose-response curve: 1.6
[10]
  area under dose-response curve: 2.06
[4]
  area under dose-response curve: 2.15
[5]
  area under dose-response curve: 2.83
[13]
  area under dose-response curve: 3.75

Source: the supplement of paper PMC6045584
